Series [1] has as its target T1, lysine-specific permease (LysP) (Pseudomonas aeruginosa, UniProt Q9HVG3). Put plainly: microscale thermophoresis. The format is binding. Details: purified GFP-free LysP in LMNG. In general terms: Microscale thermophoresis detects binding through changes in fluorescence in a small temperature gradient.
In series [2] the target is T1, lysine-specific permease (LysP). The series is described as follows: microscale thermophoresis; inhibition of [3H]L-lysine transport in LysP proteoliposomes. The class given is binding. Also noted: purified GFP-free LysP in LMNG.
For series [3] the target is unchanged. Put plainly: cryo-EM structure ([…] Å) and microscale thermophoresis; [3H]L-lysine transport in proteoliposomes (cold L-lysine IC50 […]). The class given is binding. Details: purified GFP-free LysP in LMNG (MST); LysP-Nb5755 complex (cryo-EM); with nanobody Nb5755 (cryo-EM structure only).
Series [4] has as its target T2, LysP-GFP fusion (P. aeruginosa LysP with GFP-His8) (P. aeruginosa strain PAO1, UniProt Q9HVG3).
T2 construct: lysine-specific permease LysP, P. aeruginosa strain PAO1, UniProt Q9HVG3; the same construct as m1 in pWaldo-GFPd, with the GFP-His8 fusion not cut off; The GFP fluorescence is the read-out of the GFP-TS assay; source: E. coli (DE3) C43, in membranes solubilised with 1% DDM, not purified
The series is described as follows: GFP thermal shift (GFP-TS) assay; membranes with LysP-GFP solubilised in 150 mM NaCl, 20 mM Tris-HCl pH 7.5, 1% DDM with or without 1 uM Nb5755, 1 h at 4 °C; 1% beta-OG added; heated 10 min at 4-100 °C; GFP fluorescence of the supernatant. The note with it: one partner purified.

In series [1], `NCCCC[C@@H](N)C(=O)O` [D-lysine] came in with a dissociation constant (Kd) of 151 µM. On to `NCCSC[C@H](N)C(=O)O` [L-4-thialysine, S-(2-aminoethyl)-L-cysteine], for which the dissociation constant (Kd) in series [2] is 31 µM. In turn, `NCCCC[C@H](N)C(=O)O` [L-lysine] showed a Kd in series [3] of 14 µM.

B1: nanobody Nb5755 (VHH)
VHH: QVQLQESGGGLVQGGSLRLSCAASGRTFSIYGMAWVRQASGKEREFVAAMPRGGGTTNYADSVKGRFSISRDNAKNTVDLQMNSLKPEDTAVYYCVADRGFTLRLGIQHDYWGQGTQVTVSS
notes: raised in a llama immunised with LysP and selected by phage display; Library cloned into the phage display vector pMESy4, which bears the C-terminal His6 and EPEA tags; also called Nanobody 5755; CA5755; source: E. coli BL21 (DE3), periplasm, purified (Ni-NTA, SEC)
Turning to B1, the “increase in melting temperature” value in series [4] was 20 °C.

By Kd is commonly meant the equilibrium constant for the complex coming apart. Lower therefore signals a tighter complex.

The values are drawn from article PMC12764776, “Structural basis of specific lysine transport by Pseudomonas aeruginosa permease LysP” (Nature Communications, 2025).
